Reference: EP3046573B1, “AMYLIN ANALOGUES” (Zealand Pharma A/S, priority 2013, dated 2015)
Read-outs that look alike come from different tables or passages of the source. Numbered stars: 1 amine (or outer) side, 2 acyl side, 3 side chain; on linkers, the order of the positions; unused ones are H or OH. Bridge positions count the residues as written; N and C are the ends. Square brackets hold non-standard residues; d marks the D form. Peptide text beside a SMILES is read from it. * marks the point of attachment. C20 diacid = O=C(O)CCCCCCCCCCCCCCCCCCC(=O)*; γGlu = O=C(O)[C@H](CCC(=O)[*:2])N[*:1]; NMeI = CC[C@H](C)[C@H](NC)C(=O)O; Orn = NCCC[C@H](N)C(=O)O; Dap = NC[C@H](N)C(=O)O; Sar = CNCC(=O)O

Tests used:
[1] = target: T1, human calcitonin receptor (hCTR2) (Homo sapiens, UniProt P30988); assay: hCTR2 assay: induction of cAMP (AlphaScreen cAMP Assay kit) in COS7 cells expressing hCTR2; type: cell-based
T1 construct: expressed in transfected cells
T1 sequence (P30988 25-474): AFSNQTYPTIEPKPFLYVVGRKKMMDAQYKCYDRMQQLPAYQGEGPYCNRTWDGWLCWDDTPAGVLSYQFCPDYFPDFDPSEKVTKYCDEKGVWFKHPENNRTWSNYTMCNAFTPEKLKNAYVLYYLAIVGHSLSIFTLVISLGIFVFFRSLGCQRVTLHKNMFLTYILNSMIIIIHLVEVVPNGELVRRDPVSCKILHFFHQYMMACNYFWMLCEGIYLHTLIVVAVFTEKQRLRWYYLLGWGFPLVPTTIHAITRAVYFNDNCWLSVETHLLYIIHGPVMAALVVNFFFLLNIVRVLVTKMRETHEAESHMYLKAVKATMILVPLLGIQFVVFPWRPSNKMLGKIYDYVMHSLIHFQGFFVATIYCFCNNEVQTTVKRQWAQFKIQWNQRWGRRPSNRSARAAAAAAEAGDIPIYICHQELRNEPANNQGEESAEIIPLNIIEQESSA
How it was run: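 Functional agonism is measured as cAMP accumulation in a COS7 line stably transfected with hCTR2, lacking endogenous RAMPs. Peptides act for 15 min at 37° C with IBMX present, and curves are fitted with a 4-parameter logistic model.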

[2] = Solubility assessment (turbidity absorbance at 325 nm); type: physicochemical; details: stock 2 mg/ml diluted 1:1, ambient temperature (typically 25°C), n=1; for Solubility, Acetate buffer pH 4: 100 mM acetate buffer pH 4.0; for Solubility, Acetate buffer pH 5: 100 mM acetate buffer pH 5.0; for Solubility, Histidine buffer pH 6: 100 mM histidine buffer pH 6.0; for Solubility, Histidine buffer pH 7: 100 mM histidine buffer pH 7.0; for Solubility, Phosphate buffer pH 6: 100 mM phosphate buffer pH 6.0; for Solubility, Phosphate buffer pH 7: 100 mM phosphate buffer pH 7.0; for Solubility, Phosphate buffer pH 7.5: 100 mM phosphate buffer pH7.5
How it was run: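 Peptide stock (2 mg/ml, water pH 2.5) diluted 1:1 into 100 mM acetate (pH 4.0, 5.0), histidine (pH 6.0, 7.0) or phosphate (pH 6.0–7.5) buffer; absorbance at 325 nm read at about 25°C, n=1. A325 ≤ 0.02 taken as solubility ≥ 1 mg/ml.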

[3] = cAMP induction in COS7 cells expressing hCTR2, average of a minimum of 3 determinations, read-out: hCTR2 EC50

EC50 [1, 3] [nM]	SMILES	Solubility, Acetate buffer pH 4 [2]	Solubility, Acetate buffer pH 5 [2]	Solubility, Histidine buffer pH 6 [2]	Solubility, Histidine buffer pH 7 [2]	Solubility, Phosphate buffer pH 6 [2]	Solubility, Phosphate buffer pH 7 [2]	Solubility, Phosphate buffer pH 7.5 [2]	EC50 [1] [nM]
0.11	CC[C@H](C)[C@@H](C(=O)N[C@@H](CC(C)C)C(=O)N[C@@H](CO)C(=O)N[C@@H](CO)C(=O)N[C@H](C(=O)N[C@@H](CC(N)=O)C(=O)N[C@H](C(=O)NCC(=O)N[C@@H](CO)C(=O)N[C@@H](CC(N)=O)C(=O)N[C@H](C(=O)N1CCC[C@H]1C(N)=O)[C@@H](C)O)C(C)C)[C@@H](C)O)N(C)C(=O)CN(C)C(=O)[C@H](Cc1ccccc1)NC(=O)[C@H](CC(N)=O)NC(=O)[C@H](CC(N)=O)NC(=O)[C@H](CO)NC(=O)[C@H](CO)NC(=O)[C@H](Cc1c[nH]cn1)NC(=O)[C@H](Cc1c[nH]cn1)NC(=O)[C@H](CC(C)C)NC(=O)[C@H](Cc1ccccc1)NC(=O)[C@H](CCC(=O)O)NC(=O)[C@H](C)NC(=O)[C@H](CC(C)C)NC(=O)[C@H](CCCNC(=N)N)NC(=O)[C@H](CCC(N)=O)NC(=O)[C@@H](NC(=O)[C@H](C)NC(=O)[C@@H]1CSSC[C@H](NC(=O)[C@H](CCCN)NC(=O)CC[C@H](NC(=O)CCCCCCCCCCCCCCCCCCC(=O)O)C(=O)O)C(=O)N[C@@H](CC(N)=O)C(=O)N[C@@H]([C@@H](C)O)C(=O)N[C@@H](C)C(=O)N[C@@H]([C@@H](C)O)C(=O)N1)[C@@H](C)O [Compound 66, [19CD]-isoGlu-Orn-C()NTATC()ATQRLAEFLHHSSNNF-Gly(Me)-Ile(Me)-LSSTNVGSNTP-NH2] ({C20 diacid-γGlu}-[Orn]CNTATCATQRLAEFLHHSSNNF[Sar][NMeI]LSSTNVGSNTP-NH2; disulfide 2-7)	SS (SS indicates solubility ≥ 1mg/ml)	SS (SS indicates solubility ≥ 1mg/ml)	SS (SS indicates solubility ≥ 1mg/ml)	SS (SS indicates solubility ≥ 1mg/ml)	SS (SS indicates solubility ≥ 1mg/ml)	SS (SS indicates solubility ≥ 1mg/ml)	SS (SS indicates solubility ≥ 1mg/ml)	–
–	CC[C@H](C)[C@@H](C(=O)N[C@@H](CC(C)C)C(=O)N[C@@H](CO)C(=O)N[C@@H](CO)C(=O)N[C@H](C(=O)N[C@@H](CC(N)=O)C(=O)N[C@H](C(=O)NCC(=O)N[C@@H](CO)C(=O)N[C@@H](CC(N)=O)C(=O)N[C@H](C(=O)N1CCC[C@H]1C(N)=O)[C@@H](C)O)C(C)C)[C@@H](C)O)N(C)C(=O)[C@H](C)NC(=O)CN(C)C(=O)[C@H](Cc1ccccc1)NC(=O)[C@H](CC(N)=O)NC(=O)[C@H](CC(N)=O)NC(=O)[C@H](CO)NC(=O)[C@H](CO)NC(=O)[C@H](Cc1c[nH]cn1)NC(=O)[C@H](Cc1c[nH]cn1)NC(=O)[C@H](CC(C)C)NC(=O)[C@H](Cc1ccccc1)NC(=O)[C@H](CCC(=O)O)NC(=O)[C@H](C)NC(=O)[C@H](CC(C)C)NC(=O)[C@H](CCCNC(=N)N)NC(=O)[C@H](CCC(N)=O)NC(=O)[C@@H](NC(=O)[C@H](C)NC(=O)[C@@H]1CSSC[C@H](NC(=O)[C@H](CN)NC(=O)CC[C@H](NC(=O)CCCCCCCCCCCCCCCCCCC(=O)O)C(=O)O)C(=O)N[C@@H](CC(N)=O)C(=O)N[C@@H]([C@@H](C)O)C(=O)N[C@@H](C)C(=O)N[C@@H]([C@@H](C)O)C(=O)N1)[C@@H](C)O [Compound 67, [19CD]-isoGlu-Dap-C()NTATC()ATQRLAEFLHHSSNNF-Gly(Me)-A-Ile(Me)-LSSTNVGSNTP-NH2] ({C20 diacid-γGlu}-[Dap]CNTATCATQRLAEFLHHSSNNF[Sar]A[NMeI]LSSTNVGSNTP-NH2; disulfide 2-7)	SS (SS indicates solubility ≥ 1mg/ml)	SS (SS indicates solubility ≥ 1mg/ml)	SS (SS indicates solubility ≥ 1mg/ml)	SS (SS indicates solubility ≥ 1mg/ml)	SS (SS indicates solubility ≥ 1mg/ml)	SS (SS indicates solubility ≥ 1mg/ml)	SS (SS indicates solubility ≥ 1mg/ml)	0.19
–	CC[C@H](C)[C@@H](C(=O)N[C@@H](CC(C)C)C(=O)N[C@H](CO)C(=O)N[C@@H](CO)C(=O)N[C@H](C(=O)N[C@@H](CC(N)=O)C(=O)N[C@H](C(=O)NCC(=O)N[C@@H](CO)C(=O)N[C@@H](CC(N)=O)C(=O)N[C@H](C(=O)N1CCC[C@H]1C(N)=O)[C@@H](C)O)C(C)C)[C@@H](C)O)N(C)C(=O)[C@H](C)NC(=O)CN(C)C(=O)[C@H](Cc1ccccc1)NC(=O)[C@H](CC(N)=O)NC(=O)[C@H](CC(N)=O)NC(=O)[C@H](CO)NC(=O)[C@H](CO)NC(=O)[C@H](CCCNC(=N)N)NC(=O)[C@H](Cc1c[nH]cn1)NC(=O)[C@H](CC(C)C)NC(=O)[C@H](Cc1ccccc1)NC(=O)[C@H](CCC(=O)O)NC(=O)[C@H](C)NC(=O)[C@H](CC(C)C)NC(=O)[C@H](CCCNC(=N)N)NC(=O)[C@H](CCC(N)=O)NC(=O)[C@@H](NC(=O)[C@H](C)NC(=O)[C@@H]1CSSC[C@H](NC(=O)[C@H](CCCCN)NC(=O)CC[C@H](NC(=O)CCCCCCCCCCCCCCCCCCC(=O)O)C(=O)O)C(=O)N[C@@H](CC(N)=O)C(=O)N[C@@H]([C@@H](C)O)C(=O)N[C@@H](C)C(=O)N[C@@H]([C@@H](C)O)C(=O)N1)[C@@H](C)O [Compound 68, [19CD]-isoGlu-KC()NTATC()ATQRLAEFLHRSSNNF-Gly(Me)-A-Ile(Me)-L-DSer-STNVGSNTP-NH2] ({C20 diacid-γGlu}-KCNTATCATQRLAEFLHRSSNNF[Sar]A[NMeI]L[dS]STNVGSNTP-NH2; disulfide 2-7)	SS (SS indicates solubility ≥ 1mg/ml)	SS (SS indicates solubility ≥ 1mg/ml)	SS (SS indicates solubility ≥ 1mg/ml)	SS (SS indicates solubility ≥ 1mg/ml)	SS (SS indicates solubility ≥ 1mg/ml)	SS (SS indicates solubility ≥ 1mg/ml)	SS (SS indicates solubility ≥ 1mg/ml)	0.096
0.24	CC[C@H](C)[C@@H](C(=O)N[C@@H](CC(C)C)C(=O)N[C@@H](CO)C(=O)N[C@@H](CO)C(=O)N[C@H](C(=O)N[C@@H](CC(N)=O)C(=O)N[C@H](C(=O)NCC(=O)N[C@@H](CO)C(=O)N[C@@H](CC(N)=O)C(=O)N[C@H](C(=O)N1CCC[C@H]1C(N)=O)[C@@H](C)O)C(C)C)[C@@H](C)O)N(C)C(=O)CN(C)C(=O)[C@H](Cc1ccccc1)NC(=O)[C@H](CC(N)=O)NC(=O)[C@H](CC(N)=O)NC(=O)[C@H](CO)NC(=O)[C@H](CO)NC(=O)[C@H](Cc1c[nH]cn1)NC(=O)[C@H](Cc1c[nH]cn1)NC(=O)[C@H](CC(C)C)NC(=O)[C@H](Cc1ccccc1)NC(=O)[C@H](CCC(=O)O)NC(=O)[C@H](C)NC(=O)[C@H](CC(C)C)NC(=O)[C@H](CCCNC(=N)N)NC(=O)[C@H](CCC(N)=O)NC(=O)[C@@H](NC(=O)[C@H](C)NC(=O)[C@@H]1CSSC[C@H](NC(=O)[C@H](CN)NC(=O)CC[C@H](NC(=O)CCCCCCCCCCCCCCCCCCC(=O)O)C(=O)O)C(=O)N[C@@H](CC(N)=O)C(=O)N[C@@H]([C@@H](C)O)C(=O)N[C@@H](C)C(=O)N[C@@H]([C@@H](C)O)C(=O)N1)[C@@H](C)O [Compound 69, [19CD]-isoGlu-Dap-C()NTATC()ATQRLAEFLHHSSNNF-Gly(Me)-Ile(Me)-LSSTNVGSNTP-NH2] ({C20 diacid-γGlu}-[Dap]CNTATCATQRLAEFLHHSSNNF[Sar][NMeI]LSSTNVGSNTP-NH2; disulfide 2-7)	SS (SS indicates solubility ≥ 1mg/ml)	SS (SS indicates solubility ≥ 1mg/ml)	SS (SS indicates solubility ≥ 1mg/ml)	SS (SS indicates solubility ≥ 1mg/ml)	SS (SS indicates solubility ≥ 1mg/ml)	SS (SS indicates solubility ≥ 1mg/ml)	SS (SS indicates solubility ≥ 1mg/ml)	–
